From patent publication US10729633B2, “Methods for boosting UVA photo-protection using antioxidants” (L'OREAL, priority 2018, dated 2020)

Key:
[1] = In vivo PPD: UVPPD PF according to ISO 24442; details: conclusion in words from PPD data of Examples 2 and 3
Description: To characterize protection from UVA radiation, the PPD (Persistent Pigment Darkening) method, which measures the color of the skin observed 2 to 4 hours after exposure of the skin to UVA radiation, is used. This method was adopted in 1996 by the Japanese Cosmetic Industry Association (JCIA) as the official test procedure for the UVA labelling of products and is commonly used in industry, especially in Europe and the United States. See JAPAN COSMETIC […] ASSOCIATION TECHNICAL BULLETIN, Measurement Standards for UVA Protection Efficacy. Issued Nov. 21, 1995 and effective of Jan. 1, 1996), which is incorporated herein by reference in its entirety. […]
The degree of UVA protection provided by each of the formulations was determined in terms of UVPPD PF. […]
The UVPPD PF for each of sunscreen formulations A, B, and C was determined according to ISO 24442, which was adopted by the Japan Cosmetic Industry Association in 2012 for characterization of UVA protection and is incorporated herein by reference in its entirety. […] UVA radiation can be monitored continuously during exposure using a Model DCS-1 Sunburn UV Meter/Dose Controller System (Solar Light Co.), formerly known as the Robertson-Berger Sunburn meter (R-B meter). […] The MPPD of unprotected skin is determined under standardized lighting conditions 2 to 4 hours after exposures. […]

[2] = Oxygen Radical Absorbance Capacity (ORAC) assay; format: biochemical; details: in tubo, Trolox standard
Description: (§1) In tubo antioxidant testing was carried out to determine the antioxidant profile of antioxidants that boost UVA photo-protection.
The Oxygen Radical Absorbance Capacity (ORAC) assay is one of most commonly used methods to evaluate the capacity of antioxidants against ROS (reactive oxygen species), specific for peroxyl which is one of the most important free radicals present in the human skin environment. The ORAC assay measures the oxidative degradation of the fluorescent probe (fluorescein) after being mixed with free radical generators such as azo-initiator compounds (2,2′-Azobis(2-amidinopropane) dihydrochloride, AAPH). Azo-initiators produce the peroxyl radical by heating, which damages the fluorescent molecule, resulting in the loss of fluorescence. Antioxidants protect the fluorescent molecule from the oxidative degeneration. By quantifying the decay of fluorescence using a fluorometer, the degree of protection is determined comparing with a standard control antioxidant Trolox. The result is expressed in mol equivalent of Trolox per gram of sample (i.e., μmol TE/g). Equipment that can automatically measure and calculate the capacity is commercially available, such as the VarioSkan flash microplate reader from Thermo Scientific. To test samples for ORAC, compounds are dissolved into water-based NaH2PO4 buffer.

[3] = Hydroxyl Radical Absorbance Capacity (HORAC) assay; format: biochemical; details: in tubo, Gallic Acid standard
Description: as §1
The HORAC assay is another common method to examine antioxidant activity. It is specific for hydroxyl radicals. The Varioskan Flash is employed for the quantification of the capacity of an antioxidant to avert the hydroxyl radical. The hydroxyl radical, generated from hydrogen peroxide and Cobalt (II) fluoride, will quench a fluorescent probe by a hydrogen atom transfer reaction. In the presence of an antioxidant, however, the molecule will chelate the Co(II), preventing the generation of the hydroxyl radical and initially block or prevent the quenching of the probe, causing a delay in the fluorescence decay profile. The area under the fluorescence decay curves for samples with and without the presence of an antioxidant molecule are compared to that of a standard reference material and the hydroxyl radical averting capacity is determined. By quantifying the decay of fluorescence using a fluorometer, the degree of protection is determined by comparison with a standard control antioxidant Gallic Acid (standard reference material). The result is expressed in μmol equivalent of Gallic Acid per gram of sample (i.e., μmol GAE/g). Equipment that can automatically measure and calculate the capacity is commercially available, such as the VarioSkan flash microplate reader from Thermo Scientific. To test samples by using HORAC, compounds are dissolved into water-based NaH2PO4 buffer.

[4] = Superoxide Radical Absorbance Capacity (SORAC) assay; format: biochemical; design: key: None: No detectable value; details: in tubo, WST-1 probe
Description: as §1
The Superoxide Radical Absorbance Capacity (SORAC) assay is an in tubo method to determine the relative capacity of an antioxidant to dismutate the superoxide anion. The Varioskan Flash is employed to measure the superoxide dismutase-catalyzed dismutation of the superoxide anion in the presence of the absorbance probe, water-soluble tetrazolium salt (WST-1). WST-Formazan is produced when WST-1 is […] by superoxide anion that is generated by the mixture of xanthine and xanthine oxidase. One unit of SOD activity is defined as the quantity of antioxidant to obtain 50% inhibition of the rate of reduction of WST-1. The final SORAC value is expressed as one unit of SOD activity per milligram of dry weight of antioxidant material at 50% inhibition (Unit/mg).

Row | Structure (SMILES) | boosting effect on UVA photo-protection [1] | ORAC-peroxyl [2] | HORAC-hydroxyl [3] | SORAC-superoxide [4]
1 | O=C(O)[C@H]1O[C@@H](Oc2cc3oc(-c4ccccc4)cc(=O)c3c(O)c2O)[C@H](O)[C@@H](O)[C@@H]1O [Baicalin, reference compound] | did not boost UVA photo-protection | Medium (4500-10000) | Weak (<2600) | Medium (200-1000)
2 | COc1cc(/C=C/C(=O)O)ccc1O [Ferulic acid] | – | Strong (>10000) | Strong (>10000) | Weak (<200)
3 | O=C(CCc1ccc(O)cc1)c1c(O)cc(O)cc1O [Phloretin] | – | Strong (>10000) | Medium (2600-10000) | None
4 | OC[C@H]1O[C@@H](Oc2cc(O)cc(/C=C/c3ccc(O)cc3)c2)[C@H](O)[C@@H](O)[C@@H]1O [Polydatin] | – | Strong (>10000) | Strong (>10000) | None
